For one experiment, the target named is T1, Human recombinant MMP-13 (Homo sapiens, UniProt P45452).
T1 construct: made in house; host or cells: baculovirus / insect cells
The experiment in a line: In vitro MMP inhibition, Ki determination (fluorogenic substrate II). Conditions: value in parentheses. The experiment is classed as biochemical. A digest of the protocol:
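Baculovirus-expressed proenzyme, APMA-activated; 4 μM fluorogenic MCA/Dpa peptide substrate (II), at or below Km, in Tris buffer pH 7.5 with CaCl2, 1 hr at room temperature. Fluorescence at 330/420 nm; Ki from non-linear regression with Morrison's equation, not corrected for substrate.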

The next experiment concerns the target T2, Human recombinant MMP-2 (Homo sapiens, UniProt P08253).
T2 construct: made in house; host or cells: MMP-2-transfected p2AHT2 cells
T2 sequence (P08253 110-660): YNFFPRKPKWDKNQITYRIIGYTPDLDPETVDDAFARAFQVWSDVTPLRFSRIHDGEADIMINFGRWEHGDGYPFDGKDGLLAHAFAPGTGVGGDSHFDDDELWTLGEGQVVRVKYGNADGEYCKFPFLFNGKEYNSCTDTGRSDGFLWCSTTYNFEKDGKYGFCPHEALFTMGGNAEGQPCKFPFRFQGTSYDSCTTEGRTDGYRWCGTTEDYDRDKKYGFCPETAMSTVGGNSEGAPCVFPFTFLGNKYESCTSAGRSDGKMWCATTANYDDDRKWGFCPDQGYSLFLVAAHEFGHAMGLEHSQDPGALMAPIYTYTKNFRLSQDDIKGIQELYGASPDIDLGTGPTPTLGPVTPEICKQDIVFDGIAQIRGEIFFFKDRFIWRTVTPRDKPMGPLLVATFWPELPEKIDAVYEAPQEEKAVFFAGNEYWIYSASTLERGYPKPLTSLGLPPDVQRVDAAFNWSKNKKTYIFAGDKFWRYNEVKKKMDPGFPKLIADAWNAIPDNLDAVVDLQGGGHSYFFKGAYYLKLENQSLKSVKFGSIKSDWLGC
The description is as above. The experiment is classed as biochemical. The following applies: value in parentheses.

As to `O=C(NO)C1(S(=O)(=O)c2ccc(OCCCc3cccc(-c4ccccc4O)c3)cc2)CCOCC1` [Example 636], the Ki (usually a measure of affinity in units of concentration, obtained from inhibition or displacement) on Human recombinant MMP-13 amounted to 3.21 nM; on Human recombinant MMP-2 it was 527 nM.
The corresponding values for `O=C(NO)C1(S(=O)(=O)c2ccc(OCCCc3cccc(-c4ccoc4)c3)cc2)CCOCC1` [Example 637] are 4.63 nM and 498 nM.
The corresponding values for `O=C(NO)C1(S(=O)(=O)c2ccc(OCCCc3cccc(-c4cccc5ccccc45)c3)cc2)CCOCC1` [Example 638] are 68.1 nM and 8120 nM.
The corresponding values for `Cc1ccc(-c2cccc(CCCOc3ccc(S(=O)(=O)C4(C(=O)NO)CCOCC4)cc3)c2)s1` [Example 639] are 12.5 nM and 505 nM.

Source of the values: patent US20040024024A1, “Aromatic sulfone hydroxamates and their use as protease inhibitors” (priority 2001, published 2004).
